Assay results taken from US11655244B2, “Carbazole compounds and methods of use thereof” (GSNO Therapeutics, Inc, priority 2017, dated 2023).
Read-outs that look alike come from different tables or passages of the source.

Columns and labels:
[1] = test system: non-alcoholic steatohepatitis (NASH) in male C57BL/6 mice; assay: Non-alcoholic steatohepatitis (NASH) model, Streptozotocin plus 60% kcal fat diet; type: in vivo; conditions: for liver to body weight ratio: disease control 0.066; for decrease of percentage collagen proportion area (CPA), Masson's trichrome staining, liver: vs disease control
Protocol: Timed pregnant mice (n=44) were selected for the study. The delivered pups were subcutaneously injected on post-natal day 2 with 200 μg of Streptozotocin and were allowed to remain with the mother until they reached the weanling age. After weanling, the male pups were selected and fed with 60% kcal fat diet (Research Diet-D12492) for next 6 weeks. All the animals were observed once daily for clinical signs and twice daily for morbidity and mortality.
Mice were dosed with vehicle, Compound 17 (at 3 mg/kg or 10 mg/kg) and 10 mg/kg of reference compound (either Obeticholic acid (OCA) or Elafibranor (ELA, GFT505)) once daily before the start of dark cycle (6:00 PM) from day 0 to 21. Animal body weight measurements were made daily for the complete duration of the experiment. Animals were dosed for 21 days (from week 9 to 12) with the test and reference compounds. Blood glucose was estimated before the treatment start, day 11 and on the termination day. Histopathology analysis including the H&E staining, Masson's trichrome staining and the Oil-red-O (ORO) staining was performed for the liver tissues.

GSNOR enzyme [2] = target: T1, GSNOR enzyme (Homo sapiens, UniProt P11766); assay: GSNOR inhibition assay (rate of NADH consumption, 340 nm absorbance); type: biochemical
Protocol: The following compounds were also prepared based on the methods described herein, using the appropriate starting materials. Table 2a and Table 2b also provides the % GSNOR inhibition at 20 μM of compounds described herein. […] The buffer was 100 mM phosphate buffer (pH 7.4.) The rate of NADH consumption for each well was determined by ultraviolet spectroscopy. Plates were read on a Molecular Devices Spectra Max UV/Visible Spectrophotometer/plate reader and the change in 340 nm absorbance at 25° C. was recorded for each well at 10 sec intervals over the duration of the recording period (2˜5 minutes). The rate was measured from the linear portion of the curve. Final test compound concentration was 20 μM. The mean % inhibition from 3 test compound wells and 5 control wells was measured as the percentage of the mean no compound+enzyme−the mean no enzyme, no compound control.

GSNOR enzyme [3] = target: T1, GSNOR enzyme; assay: as above; type: biochemical; conditions: Table 2b; read-out: IC50 Micromolar
[4] = Table 2a, test compound 20 μM, pH 7.4, 25° C., read-out: % Inhibit. at 20 μM
[5] = Table 2b, test compound 20 uM, read-out: % GSNOR Inhibition at 20 uM

T1 sequence (P11766 whole entry): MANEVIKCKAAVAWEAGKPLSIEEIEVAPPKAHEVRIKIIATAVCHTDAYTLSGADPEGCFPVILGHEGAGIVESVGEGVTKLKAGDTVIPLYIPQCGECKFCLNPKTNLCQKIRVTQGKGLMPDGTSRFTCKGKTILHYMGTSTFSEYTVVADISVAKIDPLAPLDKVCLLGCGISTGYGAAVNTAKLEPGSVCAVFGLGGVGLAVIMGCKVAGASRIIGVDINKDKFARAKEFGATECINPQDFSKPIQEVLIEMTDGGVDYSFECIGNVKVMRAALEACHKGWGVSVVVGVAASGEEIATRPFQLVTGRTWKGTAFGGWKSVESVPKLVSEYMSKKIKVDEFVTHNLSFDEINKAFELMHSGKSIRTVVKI

With `CSc1ccc(C(=O)/C=C/c2cc(C)c(OC(C)(C)C(=O)O)c(C)c2)cc1` [Elafibranor, reference compound] the NAS ([1]; 10 mg/kg) was 2.67, the “ORO (Oil-Red-O) steatosis score relative to disease control” value ([1]; 10 mg/kg) was −11% and the “change of liver to body weight ratio compared with disease control” value ([1]; 10 mg/kg) was “+40%”. The “plasma glucose relative to disease control (in words)” value ([1]; 10 mg/kg once daily) was “neither OCA nor ELA reduced glucose”, the “body weight, statistical significance” value ([1]; 10 mg/kg, day 7 and 12 post-treatment) was “statistically significant (*p<0.05) increase in body weight” and the “weight put on relative to naïve controls at day 21” value ([1]; 10 mg/kg) was “+43%”. For the same compound, the “liver to body weight ratio” value ([1]; 10 mg/kg) was 0.092, the “decrease of percentage collagen proportion area (CPA), Masson's trichrome staining, liver” value ([1]; 10 mg/kg) was 54% and the “change in body weight (g), Mean” value ([1]; Day 1, 10 mg/kg once daily) was 0.00 g. For the same compound, the “change in body weight (g), Mean” value ([1]; Day 2, 10 mg/kg once daily) was 0.70 g, the “change in body weight (g), Mean” value ([1]; Day 3, 10 mg/kg once daily) was 1.18 g and the “change in body weight (g), Mean” value ([1]; Day 4, 10 mg/kg once daily) was 0.93 g. The “change in body weight (g), Mean” value ([1]; Day 5, 10 mg/kg once daily) was 1.42 g, the “change in body weight (g), Mean” value ([1]; Day 6, 10 mg/kg once daily) was 1.31 g and the “change in body weight (g), Mean” value ([1]; Day 7, 10 mg/kg once daily) was 1.43 g. The “change in body weight (g), Mean” value ([1]; Day 8, 10 mg/kg once daily) was 1.49 g, the “change in body weight (g), Mean” value ([1]; Day 9, 10 mg/kg once daily) was 1.71 g and the “change in body weight (g), Mean” value ([1]; Day 10, 10 mg/kg once daily) was 1.69 g. The “change in body weight (g), Mean” value ([1]; Day 11, 10 mg/kg once daily) was 1.47 g, the “change in body weight (g), Mean” value ([1]; Day 12, 10 mg/kg once daily) was -0.17 g and the “change in body weight (g), Mean” value ([1]; Day 13, 10 mg/kg once daily) was 1.73 g. For the same compound, the “change in body weight (g), Mean” value ([1]; Day 14, 10 mg/kg once daily) was 1.96 g, the “change in body weight (g), Mean” value ([1]; Day 15, 10 mg/kg once daily) was 2.00 g and the “change in body weight (g), Mean” value ([1]; Day 16, 10 mg/kg once daily) was 1.64 g. For the same compound, the “change in body weight (g), Mean” value ([1]; Day 17, 10 mg/kg once daily) was 1.82 g, the “change in body weight (g), Mean” value ([1]; Day 18, 10 mg/kg once daily) was 2.16 g and the “change in body weight (g), Mean” value ([1]; Day 19, 10 mg/kg once daily) was 2.26 g. The “change in body weight (g), Mean” value ([1]; Day 20, 10 mg/kg once daily) was 1.88 g and the “change in body weight (g), Mean” value ([1]; Day 21, 10 mg/kg once daily) was 2.22 g.
`NC(=O)c1ccc(-n2c3cc(CNc4nccs4)ccc3c3ccc(C(=O)O)cc32)c([N+](=O)[O-])c1` [Compound J1, 9-(4-carbamoyl-2-nitrophenyl)-7-((thiazol-2-ylamino)methyl)-9H-carbazole-2-carboxylic acid] was tested, and the inhibition at 20 µM (GSNOR enzyme [2]; [4]) was 9%.
For `N#Cc1ccc(-n2c3cc(CNc4nccs4)ccc3c3ccc(C(=O)O)cc32)c([N+](=O)[O-])c1` [Compound G1, 9-(4-cyano-2-nitrophenyl)-7-((thiazol-2-ylamino)methyl)-9H-carbazole-2-carboxylic acid], the inhibition at 20 µM (GSNOR enzyme [2]; [4]) was 15%.
Compound `O=C(O)CCc1ccc2c3cc(-n4ccnc4)ccc3n(-c3ccc(Cl)cc3)c2c1` [Compound 22] has an inhibition at 20 µM (GSNOR enzyme [2]; [5]) of 81.4%.
With `O=C(O)CCc1ccc2c3cc(-n4ccnc4)ccc3n(-c3ccc(O)cc3)c2c1` [Compound 23] the inhibition at 20 µM (GSNOR enzyme [2]; [5]) was 93.4%.
`COc1ccc(-n2c3ccc(-n4ccnc4)cc3c3ccc(CCC(=O)O)cc32)cc1` [Compound 24] gave an inhibition at 20 µM (GSNOR enzyme [2]; [5]) of 90%.
For `NC(=O)CCn1c2ccc(-n3ccnc3)cc2c2cc(F)c(C(=O)O)cc21` [Compound E1, 9-(3-amino-3-oxopropyl)-3-fluoro-6-(1H-imidazol-1-yl)-9H-carbazole-2-carboxylic acid], the inhibition at 20 µM (GSNOR enzyme [2]; [4]) was 18%.
For `CC[C@H]1[C@@H](O)[C@@H]2[C@H](CC[C@]3(C)[C@@H]([C@H](C)CCC(=O)O)CC[C@@H]23)[C@@]2(C)CC[C@@H](O)C[C@@H]12` [Obeticholic acid, reference compound], the NAS ([1]; 10 mg/kg) was 3.20, the “ORO (Oil-Red-O) steatosis score relative to disease control” value ([1]; 10 mg/kg) was −1% and the “change of liver to body weight ratio compared with disease control” value ([1]; 10 mg/kg) was −11%. For the same compound, the “weight put on relative to naïve controls at day 21” value ([1]; 10 mg/kg) was “+28%”, the “liver to body weight ratio” value ([1]; 10 mg/kg) was 0.058 and the “decrease of percentage collagen proportion area (CPA), Masson's trichrome staining, liver” value ([1]; 10 mg/kg) was 50%. For the same compound, the “change in body weight (g), Mean” value ([1]; Day 1, 10 mg/kg once daily) was 0.00 g, the “change in body weight (g), Mean” value ([1]; Day 2, 10 mg/kg once daily) was 0.43 g and the “change in body weight (g), Mean” value ([1]; Day 3, 10 mg/kg once daily) was 0.57 g. The “change in body weight (g), Mean” value ([1]; Day 4, 10 mg/kg once daily) was 0.43 g, the “change in body weight (g), Mean” value ([1]; Day 5, 10 mg/kg once daily) was 0.45 g and the “change in body weight (g), Mean” value ([1]; Day 6, 10 mg/kg once daily) was 0.78 g. For the same compound, the “change in body weight (g), Mean” value ([1]; Day 7, 10 mg/kg once daily) was 0.58 g, the “change in body weight (g), Mean” value ([1]; Day 8, 10 mg/kg once daily) was 0.89 g and the “change in body weight (g), Mean” value ([1]; Day 9, 10 mg/kg once daily) was 0.85 g. For the same compound, the “change in body weight (g), Mean” value ([1]; Day 10, 10 mg/kg once daily) was 1.06 g, the “change in body weight (g), Mean” value ([1]; Day 11, 10 mg/kg once daily) was 0.78 g and the “change in body weight (g), Mean” value ([1]; Day 12, 10 mg/kg once daily) was 0.06 g. For the same compound, the “change in body weight (g), Mean” value ([1]; Day 13, 10 mg/kg once daily) was 0.82 g, the “change in body weight (g), Mean” value ([1]; Day 14, 10 mg/kg once daily) was 1.05 g and the “change in body weight (g), Mean” value ([1]; Day 15, 10 mg/kg once daily) was 0.54 g. The “change in body weight (g), Mean” value ([1]; Day 16, 10 mg/kg once daily) was 0.82 g, the “change in body weight (g), Mean” value ([1]; Day 17, 10 mg/kg once daily) was 1.43 g and the “change in body weight (g), Mean” value ([1]; Day 18, 10 mg/kg once daily) was 1.52 g. The “change in body weight (g), Mean” value ([1]; Day 19, 10 mg/kg once daily) was 1.81 g, the “change in body weight (g), Mean” value ([1]; Day 20, 10 mg/kg once daily) was 1.62 g and the “change in body weight (g), Mean” value ([1]; Day 21, 10 mg/kg once daily) was 1.98 g.
`Cc1cc(C#N)ccc1-n1c2ccc(-n3ccnc3)cc2c2ccc(CCC(=O)O)cc21` [Compound 19] showed an inhibition at 20 µM (GSNOR enzyme [2]; [5]) of 81.3% and an IC50 (GSNOR enzyme [3]) of 1 to 5 µM.
`COc1ccc(-n2c3ccc(-n4ccnc4)cc3c3ccc(CCC(=O)O)cc32)c(C)c1` [Compound 25] showed an inhibition at 20 µM (GSNOR enzyme [2]; [5]) of 92%.
In the case of `N#Cc1ccc(-n2c3ccc(-n4ccnc4)cc3c3ccc(CCC(=O)O)cc32)cc1` [Compound 18], the inhibition at 20 µM (GSNOR enzyme [2]; [5]) is reported as 72.4% and the IC50 (GSNOR enzyme [3]) is reported as greater than 5 µM.
For `NC(=O)c1ccc(-n2c3cc(CNc4ncco4)ccc3c3ccc(C(=O)O)cc32)c([N+](=O)[O-])c1` [Compound I1, 9-(4-carbamoyl-2-nitrophenyl)-7-((oxazol-2-ylamino)methyl)-9H-carbazole-2-carboxylic acid], the inhibition at 20 µM (GSNOR enzyme [2]; [4]) was 0%.
For `NC(=O)CCn1c2cc(Cn3ccnc3)ccc2c2ccc(C(=O)O)cc21` [Compound 8, 9-(3-amino-3-oxopropyl)-7-[(1H-imidazol-1-yl)methyl]-9H-carbazole-2-carboxylic acid], the inhibition at 20 µM (GSNOR enzyme [2]; [4]) was 80%, the inhibition at 20 µM (GSNOR enzyme [2]; [5]) was 80% and the IC50 (GSNOR enzyme [3]) was 1 to 5 µM.
For `N#Cc1ccc(-n2c3cc(CNc4ncco4)ccc3c3ccc(C(=O)O)cc32)c([N+](=O)[O-])c1` [Compound H1, 9-(4-cyano-2-nitrophenyl)-7-((oxazol-2-ylamino)methyl)-9H-carbazole-2-carboxylic acid], the inhibition at 20 µM (GSNOR enzyme [2]; [4]) was 0%.
With `NC(=O)c1ccc(-n2c3cc(Cn4ccnc4)ccc3c3ccc(C(=O)O)cc32)c([N+](=O)[O-])c1` [Compound 16, 9-(4-aminocarbonyl-2-nitrophenyl)-7-[(1H-imidazol-1-yl)methyl]-9H-carbazole-2-carboxylic acid] the inhibition at 20 µM (GSNOR enzyme [2]; [4]) was 89%, the inhibition at 20 µM (GSNOR enzyme [2]; [5]) was 89% and the IC50 (GSNOR enzyme [3]) was 1 to 5 µM.
